Results as given in patent US20150038545A1, “HYDROXYPHENYL PYRROLE COMPOUNDS CONTAINING AN HYDROXAMIC ACID AS HDAC INHIBITORS AND MEDICINAL APPLICATIONS THEREOF” (UNIVERSIDAD DEL PAÍS VASCO, priority 2011, published 2015).

How the values were obtained:
MIAPaCa-2 = experiment: Cancer cell growth inhibition (CellTiter-Glo), MIAPaCa-2; type: cell-based; settings: Homo sapiens, MIA PaCa-2; Pancreatic Cancer, MIAPaCa-2, 72 h treatment
Description: (§1) Cell culture-based assays were used to evaluate the ability of compounds of the invention to inhibit cancer cell growth.
(§2) Cells were obtained from the American Type Culture Collection (ATCC). Cells were cultured at 37° C. with 5% CO2 in the appropriate growth medium (see table below), and harvested respectively during the logarithmic growth period and counted with hemocytometer. The cell viability was examined by trypan blue exclusion. Cell concentrations were adjusted to 5.56×10^4 cells/ml with respective medium.
(§3) Stock solutions of test compounds and positive drugs Doxorubicin (Zhejiang, Haizheng, China), Cisplatin (Nanjing Zhiyao, China) and Mitomycin (Zhejiang, Haizheng, China) were prepared in dimethyl sulphoxide (DMSO) or PBS at 20 mM.
(§4) In order to determine the IC50 for each compound, experiments were carried out in 96-well plates and the cell lines seeded at a density of 5,000 cells/well. […] All treatments were performed in triplicate. 10 μl of drug solution was added to each well and incubated for 72 hours. At the end of the incubation, 100 μl of the CellTiter-Glo Reagent were added to each well and the contents were mixed for 2 munites on an orbital shaker to induce cell lysis. The plate was incubated at room temperature for 10 minutes to stabilize luminiscent signal, and luminiscent was recorded. […] In order to calculate IC50 values, dose-responsive curves were fitted using nonlinear regression model with a sigmoidal dose response.

Calu-6 = experiment: Cancer cell growth inhibition (CellTiter-Glo), Calu-6; type: cell-based, Human; settings: Homo sapiens; Lung Cancer, Calu-6, 72 h treatment
Description: as §1, §2, §3, §4

HepG2 = experiment: Cancer cell growth inhibition (CellTiter-Glo), HepG2; type: cell-based; settings: Homo sapiens; Liver Cancer, HepG2, 72 h treatment
Description: as §1, §2, §3, §4

K562 = experiment: Cancer cell growth inhibition (CellTiter-Glo), K562; type: cell-based, Human; settings: Homo sapiens; CML, K562, 72 h treatment
Description: as §1, §2, §3, §4

NCI-N87 = experiment: Cancer cell growth inhibition (CellTiter-Glo), NCI-N87; type: cell-based, Human; settings: Homo sapiens; Gastric Cancer, NCI-N87, 72 h treatment
Description: as §1, §2, §3, §4

DU145 = experiment: Cancer cell growth inhibition (CellTiter-Glo), DU145; type: cell-based, Human; settings: Homo sapiens, DU-145; Prostate Cancer, DU145, 72 h treatment
Description: as §1, §2, §3, §4

HT-29 = experiment: Cancer cell growth inhibition (CellTiter-Glo), HT-29; type: cell-based, Human; settings: Homo sapiens; Colorectal Cancer, HT-29, 72 h treatment
Description: as §1, §2, §3, §4

LNCaP = experiment: Cancer cell growth inhibition (CellTiter-Glo), LNCaP; type: cell-based, Human; settings: Homo sapiens, Prostate Cancer, 72 h treatment
Description: as §1, §2, §3, §4

IC50 (MIAPaCa-2)	IC50 (Calu-6)	IC50 (HepG2)	IC50 (K562)	IC50 (NCI-N87)	IC50 (DU145)	IC50 (HT-29)	IC50 (LNCaP)	Structure (SMILES)
2.75 µM	2.79 µM	1.1 µM	1.02 µM	1 µM	0.81 µM	1.42 µM	1.11 µM	O=C(CCCCCNC(=O)c1[nH]c(-c2ccccc2)cc1-c1ccc(O)cc1)NO [Example 1, N-(6-(hydroxyamino)-6-oxohexyl)-3-(4-hydroxyphenyl)-5-phenyl-1H-pyrrole-2-carboxamide]
1.59 µM	4.66 µM	0.28 µM	1.75 µM	0.16 µM	0.72 µM	3.45 µM	0.59 µM	O=C(CCCCCNC(=O)c1[nH]c(-c2ccc(O)cc2)cc1-c1ccoc1)NO [Example 5, 3-(3-furyl)-N-(5-(hydroxycarbamoyl)pentyl)-5-(4-hydroxy-phenyl)-1H-pyrrole-2-carboxamide]
4.08 µM	4.22 µM	0.99 µM	1.61 µM	1.24 µM	1.86 µM	4.04 µM	1.77 µM	O=C(CCCCCNC(=O)c1[nH]c(-c2ccc(O)cc2)cc1-c1ccccc1)NO [Example 2, N-(6-(hydroxyamino)-6-oxohexyl)-5-(4-hydroxyphenyl)-3-phenyl-1H-pyrrole-2-carboxamide]
2.49 µM	3.46 µM	0.48 µM	1.35 µM	0.48 µM	1.05 µM	3.64 µM	0.8 µM	O=C(CCCCCNC(=O)c1[nH]c(-c2ccc(O)cc2)cc1-c1ccsc1)NO [Example 6, N-(5-(hydroxycarbamoyl)pentyl)-5-(4-hydroxyphenyl)-3-(3-thienyl)-1H-pyrrole-2-carboxamide]
